# Source: patent US4990613A, “(1R,5S,6S)-2-[(6,7-dih ydro-5H-pyrazolo[1,2-a][1,2,4]triazolium-6-yl)]thio-6-[R-1-hydroxyethyl]- 1-methyl-carbapenem-3-carboxylate and intermediate therefor” (Lederle (Japan), Ltd., priority 1987, dated 1991)
# System: Swine Kidney Dehydropeptidase-I (DHP-I)
# Assay: Stability of test compounds against DHP-I by HPLC
# Format: in vitro ADME
# Experimental: The swine kidney (8 kg) was homogenized and an enzyme protein was allowed to precipitate. After a connective lipid was removed with acetone, the resultant material was made soluble by treatment with butanol and purified in the order by the ammonium sulfate fraction method, thereby producing DPH-I enzyme from a 75% ammonium sulfate fraction.
# The DHP-I enzyme was then adjusted to give an enzyme concentration of 25 mg/10 ml (phosphate buffer, pH 7.1), and divided into 1 ml portions. The portions were frozen and stored at -40° C. or less until use.
# As a test compound was used the compound (15) obtained in Example 6 that follows.
# The test compounds was adjusted in situ to give the concentration of […] with a 50 mM sodium phosphate buffer solution (pH=7.1).
# As control compounds were employed glycyl dehydrophenylalanine (Gl-dh-Ph) and imipenem, and they were adjusted in situ each to give the concentration of 177 μM with the same sodium phosphate buffer solution.
# The test compound according to the present invention and the control compounds have been treated in substantially the same manner as (1) above. The incubation, however, was conducted at 37° C. for 4.5 hours or for 24 hours. A degree of the hydrolysis of the compounds each after the test periods of time was measured by the HPLC method.
structure (smiles),measurement,setting,value
C[C@@H](O)[C@H]1C(=O)N2C(C(=O)O)=C(SCCN=CN)C[C@H]12 [Imipenem],Degree of hydrolysis by DHP-I,"37° C. 4.5 hours, substrate concentration 100 μM, HPLC",77.6 µM
same,Degree of hydrolysis by DHP-I (in words),"after 24 hours at 37° C., footnote * of Table 3",imipenem has been decomposed and nothing remained was detected
